A short description of assay [1]: Inhibition of HIV1 3B Y181C mutant infected in human MT2 cells assessed as reduction in virus-induced cytopathogenicity after 3 days by BrightGlo luciferase reporter gene assay.
Assay [2] is described as follows: Inhibition of HIV1 reverse transcriptase Y181C/K103N double mutant infected in human MT4 cells assessed as reduction in virus-induced cytopathogenicity.

SMILES strings stand for the structures.

This is an account of results in BindingDB's records for doi:10.1016/j.ejmech.2019.07.019 (Isf College of Pharmacy, 2019).

As for `CCCCC(O)(c1c(NC(=O)OCC)[nH]c2ccc(Br)cc12)C(F)(F)F` (configuration not stated), the IC50 in assay [1] was 1.93 µM.
`COP(=O)(c1cc(C)cc(/C=C/C#N)c1)c1c(C(N)=O)[nH]c2ccc(Cl)cc12` (configuration not stated) [IDX899]: the IC50 in assay [2] was found to be 11 µM.
